Values quoted from earlier work, collected in US10481149B2.

Test system: elimination transporters
Conditions: sandwich-cultured rat hepatocytes; cited from earlier work

Compound: COc1ccc(Cl)cc1C(=O)NCCc1ccc(S(=O)(=O)NC(=O)NC2CCCCC2)cc1 [glibenclamide]
- interference with rosuvastatin elimination: 29.3%
